Tests used:
Format in all cases: cell-based
human BG37 [1] = target: T1, human BG37 (Homo sapiens, UniProt Q8TDU6); assay: Assay of intracellular cAMP level (EIA) in human BG37-expressing cells (HEK/hBG37), steroid hormones; conditions: steroid hormone at various concentrations, 37° C. for 15 minutes
T1 construct: Human BG37 gene cut out, utilizing the BamHI-EcoRV site, from pCR2.1-BG37ORF was subcloned into the BamHI-EcoRV digested pKT52 vector; expressed in transfected cells
T1 sequence (Q8TDU6 1-330): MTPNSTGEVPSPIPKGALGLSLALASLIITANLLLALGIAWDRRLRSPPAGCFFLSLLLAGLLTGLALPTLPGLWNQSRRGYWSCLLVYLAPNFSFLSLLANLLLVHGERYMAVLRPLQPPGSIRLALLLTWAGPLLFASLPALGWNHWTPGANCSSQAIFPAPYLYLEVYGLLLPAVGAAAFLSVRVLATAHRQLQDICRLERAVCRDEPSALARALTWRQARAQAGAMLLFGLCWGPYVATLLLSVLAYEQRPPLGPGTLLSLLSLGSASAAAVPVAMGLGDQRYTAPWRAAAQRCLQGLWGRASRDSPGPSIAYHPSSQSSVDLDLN
Method: On the day before the measurement of the intracellular cAMP level, cells were re-plated at a cell density of 4×10^4 cells/well on a poly-D-lysin-coated 96-well plate (Becton Dickinson), and then incubated at 37° C. for another 24 hours.

human BG37 [2] = target: T1, human BG37; assay: Bile acid-dependent increase of intracellular cAMP level (HTRF) in cells expressing the human BG37; conditions: cells expressing the human BG37 (HEK/hBG37); reagent at various concentrations, 37° C. for 20 minutes
Method: The intracellular cAMP level in the presence of a ligand was measured to determine the increase of the intracellular cAMP level through G proteins bound to the seven-transmembrane receptor.
On the day before the measurement of the intracellular cAMP level, cells were re-plated at a cell density of 4×10^4 cells/well on a poly-D-lysin-coated 96-well plate (Becton Dickinson), and then incubated at 37° C. for another 24 hours. Cells of the stable cell line were rinsed twice with 1 mM 3-Isobutyl-1-Methylxanthine (IBMX) (Nacalai Tesque) containing Opti-MEM solution (GIBCO BRL) (Opti-MEM-BSA-IBMX solution), and then incubated at 37° C. for 20 minutes. After removing the supernatant, Opti-MEM-IBMX solution containing a reagent at various concentrations was added thereto. The resulting mixture was incubated at 37° C. for 20 minutes. Then, the cells were lysed with 0.5% Triton X-100 to determine the level of intracellular cAMP.
Measurement of the intracellular cAMP level was carried out using cyclic AMP kit (HTRF) (Nihon Schering) according to the provided manual.

[3] = system: mock-transfected cells which contained the vector alone; assay: Intracellular cAMP level (EIA) in mock-transfected cells containing the vector alone (control cells); conditions: various concentrations, 37° C. for 15 minutes
Method: Intracellular cAMP levels were determined using the method of Zlokarmik et al. (Science 279, 84 (1998)). The intracellular cAMP level in cells that reacted with the ligand was measured to determine the increase of intracellular cAMP level through G proteins bound to the seven-transmembrane receptor.
On the day before the measurement of the intracellular cAMP level, cells were re-plated at a cell density of 4×10^4 cells/well on a poly-D-lysin-coated 96-well plate (Becton Dickinson), and then incubated at 37° C. for another 24 hours. Cells of the stable cell line were rinsed twice with 0.1% BSA (SIGMA) and 1 mM 3-Isobutyl-1-Methylxanthine containing Opti-MEM solution (GIBCO BRL: Opti-MEM-BSA-IBMX solution) (Nacalai Tesque Inc.: IBMX), and then incubated at 37° C. for 20 minutes. After removing the supernatant, Opti-MEM-BSA-IBMX solution containing at various concentrations a steroid hormone, such as progesterone, was added thereto. The resulting mixture was incubated at 37° C. for 15 minutes. Then, the cells were lysed with Lysis Buffer to measure the level of intracellular cAMP.
The measurement of the intracellular cAMP level was carried out using cyclic AMP enzyme immuno-assay (EIA) system (Amersham Pharmacia Biotech) according to the provided manual.

| Compound | intracellular cAMP level (human BG37 [2]) | other results |
| --- | --- | --- |
| C[C@]12CCC(=O)C=C1CC[C@@H]1[C@@H]2CC[C@]2(C)C(=O)CC[C@@H]12 [androstenedione] |  | intracellular cAMP level (human BG37 [1]): increased in a concentration-dependent manner |
| C[C@H](CCC(=O)O)[C@H]1CC[C@H]2[C@@H]3[C@H](O)C[C@@H]4C[C@H](O)CC[C@]4(C)[C@H]3CC[C@]12C [chenodeoxycholic acid] | elevated |  |
| C[C@H](CCC(=O)O)[C@H]1CC[C@H]2[C@@H]3[C@H](O)C[C@@H]4C[C@H](O)CC[C@]4(C)[C@H]3C[C@H](O)[C@]12C [cholic acid] | elevated |  |
| CC(=O)[C@H]1CC[C@H]2[C@@H]3CCC4=CC(=O)CC[C@]4(C)[C@H]3CC[C@]12C [progesterone] |  | concentration-dependent increase of intracellular cAMP [3]: not observed |

From US8076455B2, “Guanosine triphosphate (GTP)-binding protein-coupled receptor protein, BG37” (Merck Sharp & Dohme Corp., priority 2000, dated 2011)
